Data as given in US6762197B2 (priority 1999, dated 2004).

What was measured:
Erysiphe graminis = Erysiphe graminis control effect test (Test Example 7, small-volume spray 200 L/ha on wheat); format: in vivo; conditions: 1000 ppm, emulsifiable formulation (Formulation Example 7), spray amount corresponding to 200 L/ha, wheat (NORIN No. 73), inoculated one day after, 7 days at 23° C.
Description: (§1) Test Examples 7 and 8 are tests using a small amount (corresponding 200 L/ha) of spray on plants, in which fine small liquid drops of a spray are uniformly adhere to the surface of a plant body and the extent of spraying is insufficient to for complete wetting of the surface of a plant body.
(§2) Controlling on a wheat disease in a field is so conducted in some cases that the spray liquid amount is about 200 L/ha. In this case, the amount of the sprayed liquid is insufficient for wetting of the whole plant body, and the sprayed liquid is adheres on a plant as fine liquid drops. For exerting high control effect on the subject diseases even under such spray condition, suitable physicochemical properties such as permeation transfer property, volatility and the like are required in addition to a basic effect.
(§3) In the following tests, compounds of the invention are represented by compound numbers described in Tables 1 to 8. The control effect of a compound of the invention was evaluated by visually observing the area of a lesion on a sample plant in investigation and comparing the area of a lesion in a non-treatment district and the area of a lesion in a districts treated with the compound of the invention.
(§4) Sand loam was compacted in a plastic pot, a wheat (NORIN No. 73) was seeded and grown in a green house for 10 days. […]

Sphaerotheca fuliginea = Sphaerotheca fuliginea control effect test (Test Example 6, large-volume foliar spray on cucumber); format: in vivo; conditions: 200 ppm, flowable (Formulation Example 6), sprayed on cucumber (SAGAMI HANJIRO) before inoculation, 12 days at 23° C.
Description: Test Examples 1 to 6 are tests using a large amount (about 2000 L/ha) of spray on plants, and the extent of spraying is so that the whole surface of a plant body is completely wet and the sprayed liquid drips.
as §3
Sand loam was compacted in a plastic pot, a cucumber (SAGAMI HANJIRO) was seeded and grown in a green house for 12 days. Then, the Compound 1 was formulated into flowable fomulation according the Formulation Example 6, then, diluted with water to provide given concentration (200 ppm), and this was sprayed onto stems and leaves so as to give sufficient adhesion on the surface of cucumber leaves. After spraying, the plant was air-dried, and Sphaerotheca fuliginea spores were inoculated. After inoculation, the plant was first left for 12 days at 23° C., then, the control effect was checked.

Puccinia striiformis = Puccinia striiformis control test (Test Example 8, small-volume spray 200 L/ha on wheat); format: in vivo; conditions: 1000 ppm, emulsifiable formulation (Formulation Example 7), spray amount corresponding to 200 L/ha, wheat (NORIN No. 73), 1 day dark high humidity at 23° C. then 6 days under illumination
Description: as §1, §2, §3, §4

Row | SMILES | melting point [°C] | lesion in the treatment district (control effect) (Erysiphe graminis) | lesion area on plants relative to the lesion area of a non-treatment district (Sphaerotheca fuliginea) | lesion in the treatment district (control effect) (Puccinia striiformis)
1 | Cc1ccc(Br)cc1Cn1c(C(F)F)nn(C)c1=O | 107.6 | – | – | –
2 | Cc1ccc(-c2ccccc2)cc1Cn1c(C(F)F)nn(C)c1=O [Compound 1, 5-difluoromethyl-2-methyl-4-(2-methyl-5-phenylbenzyl)-2,4-dihydro-3H-1,2,4-triazol-3-one] | 72.7 | no lesion was recognized at all | not more than 10% | no lesion was recognized at all
